“Also recorded” adds a separate entry of the source.
What was measured:
[1] = test system: cisplatin-resistant human ovarian cancer (HTB-161) cells; test: In vitro radiosensitizing effect, MTT assay 6 days after X-ray, HTB-161; format: cell-based; conditions: MTT at 6 days
Text: Dibromo-diamino-benzene (Dibromo-phenylenediamine, Compound B) was obtained from TCI—America. Diiodo-diaminobenzene (Compound C) were synthesized, purified and crystallized in our laboratory, and the structures and purity were examined by NMR and mass spectrometry. MEM and fetal bovine serum (FBS), penicillin G and streptomycin were obtained from Hyclone Laboratories (UT, USA). Stock solution of cisplatin was freshly prepared in ultrapure water or saline, and stock solutions of Compounds A, B, C, D were prepared in pure ethanol, where the final concentration of ethanol was ≦1% when treated to cells. […]
(§1) The radiosensitizing effects of RSCs on cell viability were determined by the 3-[4,5-dimethylthiazol-2-yl]-2,5-diphenyl tetrazoliumbromide (MTT) assay. […] The surviving fraction was determined by measuring the absorbance at 540 nm (570 nm for SDS solubilization) using a Multiskan Spectrum UV/Vis microplate reader (Thermo Scientific), which is directly proportional to the number of viable cells.

[2] = test system: human cervical cancer (HeLa) cells; test: In vitro radiosensitizing effect, MTT assay 6 days after X-ray, HeLa; format: cell-based; conditions: 12-hr treatment, MTT at 6 days
Text: (§2) Dibromo-diamino-benzene (Dibromo-phenylenediamine, Compound B) was obtained from TCI—America. Diiodo-diaminobenzene (Compound C) were synthesized, purified and crystallized in our laboratory, and the structures and purity were examined by NMR and mass spectrometry. MEM and fetal bovine serum (FBS), penicillin G and streptomycin were obtained from Hyclone Laboratories (UT, USA). Stock solution of cisplatin was freshly prepared in ultrapure water or saline, and stock solutions of Compounds A, B, C, D were prepared in pure ethanol, where the final concentration of ethanol was ≦1% when treated to cells.
(§3) A human skin diploid fibroblast (GM05757 cell line) was obtained from the Coriell Cell Repository directly, while the human cervical cancer cell line (HeLa, ATCC#: CCL-2; or ME-180), human ovarian cancer cell line (NIH:OVCAR-3, ATCC#: HTB-161) and human lung cancer cell line (A549, ATCC#: CCL-185™), together with RPMI 1640, F-12K, McCoy's 5 A and L-15 culture media, were obtained from the American Type Culture Collection (ATCC) directly. Fetal bovine serum (FBS) was obtained from Hyclone Laboratories (UT, USA). The GM05757 normal cells and HeLa cells were cultivated with MEM (Hyclone) supplemented with 10% FBS, 100 units/mL penicillin G and 100 μg/mL streptomycin (Hyclone). The complete growth media for ME-180, NIH:OVCAR-3, A549 and MDA-MB-231 cells were the ATCC-formulated McCoy's 5 A Medium supplemented with 10% FBS, RPMI 1640 medium with 20%, F-12K medium with 10% FBS, and L-15 Medium (Leibovitz) with 10% FBS, respectively. The cells were maintained at 37° C. in a humidified atmosphere containing 5% CO2.
as §1, with “assay. Cells were cultured in 96-well plates (5×10^3 cells/well) for 24 h.” for “assay.”

[3] = test system: various human cancer cells; test: In vitro radiosensitizing effects in various human cancer cells (FIG. 14-21); format: cell-based; conditions: 12 hr treatment, then various doses of 225 keV X-ray
Text: as §2, §3
(§4) The radiosensitizing effects of RSCs on cell viability were determined by the 3-[4,5-dimethylthiazol-2-yl]-2,5-diphenyl tetrazoliumbromide (MTT) assay. Cells were cultured in 96-well plates (5×10^3 cells/well) for 24 h. The culture medium was replaced by fresh culture medium and incubated for 12 h with varying drug concentrations. The cells were then irradiated by 225 kV X-ray (PRECISION X-RAD IR 225) at a dose rate of 2 Gy/min with various X-ray doses. After irradiation, the cells were incubated for 6 days. The MTT assay of cell viability was then conducted. Briefly, 100 μl new medium without phenol red containing 1.2 mM MTT (sigma) (i.e., adding 10 μl 12 mM MTT stock solution in PBS) were added to each well and incubated for 4 h. The medium was then removed, and the formazan crystals solubilized by 100 μL/well DMSO (or alternatively by 100 μl/well SDS and incubated for another 4 h). The surviving fraction was determined by measuring the absorbance at 540 nm (570 nm for SDS solubilization) using a Multiskan Spectrum UV/Vis microplate reader (Thermo Scientific), which is directly proportional to the number of viable cells.

[4] = test system: human cervical cancer (ME-180) cells; test: In vitro radiosensitizing effect, MTT assay 6 days after X-ray, ME-180; format: cell-based
Text: as §2, §3, §4

[5] = test system: human normal cells (GM05757); test: In vitro toxicity in human normal cells, 72-hr treatment, MTT assay; format: cell-based; conditions: GM05757, 72-hr treatment, without ionizing radiation; for toxicity toward human normal cells: 0-50 μM cisplatin, 0-200 μM compounds
Text: as §2, with “TCI-America.” for “TCI—America.”
(§5) A human skin diploid fibroblast (GM05757 cell line) was obtained from the Coriell Cell Repository directly. Fetal bovine serum (FBS) was obtained from Hyclone Laboratories (UT, USA). The GM05757 normal cells were cultivated with MEM (Hyclone) supplemented with 10% FBS, 100 units/mL penicillin G and 100 μg/mL streptomycin (Hyclone). The cells were maintained at 37° C. in a humidified atmosphere containing 5% CO2.
as §4, with “for 72” for “for 12”, “concentrations.” for “concentrations. The cells were then irradiated by 225 kV X-ray (PRECISION X-RAD IR 225) at a dose rate of 2 Gy/min with various X-ray doses. After irradiation, the cells were incubated for 6 days.”

mice = conditions: literature; cited from earlier work
[6] = test system: human normal cells (GM05757); test: In vitro radiation-induced toxicity in human normal cells, MTT assay 12 days after X-ray; format: cell-based; conditions: GM05757, 12-hr treatment, then 0-10 Gy 225 keV X-ray, MTT at 12 days
Text: as §2, with “TCI-America.” for “TCI—America.”
as §5
as §4, with “for 12” for “for 6”, “h. […]” for “h. The medium was then removed, and the formazan crystals solubilized by 100 μL/well DMSO (or alternatively by 100 μl/well SDS and incubated for another 4 h).”

[7] = [Lu, 2010]; cited from earlier work

Compound | enhancement of radiosensitivity of cancer cells to X-ray ([2]; 0-10 Gy 225 keV X-ray) | killing of cancer cells in combination with radiation [3] | toxicity toward human normal cells [5] | radiation toxicity in human normal cells [6] | other results
bromo-(1,2-)diamino-benzene [Compound D] | significant enhancement in the radiosensitivity | enhanced the killing of cancer cells in a radiation dose dependent manner and in synergy with radiation; also recorded: enhances the effectiveness of ionizing radiation to kill tumor cells | – | – | enhancement of radiosensitivity of cisplatin-resistant cancer cells to X-ray ([1]; HTB-161, 0-7.5 Gy 225 keV X-ray): significant enhancement in the radiosensitivity; enhancement of radiosensitivity of cancer cells to X-ray ([4]; ME-180, 12-hr treatment, 0-10 Gy 225 keV X-ray, MTT at 6 days): significant enhancement in the radiosensitivity; killing of cancer cells ([4]; ME-180, 50 Gy x-ray with about 100 μM compound, about 20% survived without any RSC): early all cancer cells were killed
cis-Pt(NH3)2Cl2 [cisplatin, reference compound] | – | – | highly toxic; also recorded: severe toxicity even at low concentrations of ≦30 μM | essentially no radiation toxicity | IC50 ([5]; read-out: IC50 (cell survival rate 50% with respect to untreated cells)): ~10 µM; LD50 (mice): 13.5 mg/kg
Nc1cc(I)c(I)cc1N [Compound C, 4,5-diiodo-1,2-phenylenediamine] | – | enhanced the killing of cancer cells in a radiation dose dependent manner and in synergy with radiation; also recorded: enhances the effectiveness of ionizing radiation to kill tumor cells | essentially no toxicity; also recorded: little toxicity up to 200 μM | – | enhancement of radiosensitivity of cancer cells to X-ray ([2]; 0 and 20 Gy 225 keV X-ray): significant enhancement in the radiosensitivity
O=c1[nH]c(=O)n([C@H]2C[C@H](O)[C@@H](CO)O2)cc1I [IdU, iododeoxyuridine] | – | – | – | – | DET reaction with epre− among halopyrimidines [7]: strongest DET reaction among the halopyrimidines
Nc1cc(Cl)c(Cl)cc1N [Compound A, 4,5-dichloro-1,2-phenylenediamine] | significant enhancement in the radiosensitivity | enhanced the killing of cancer cells in a radiation dose dependent manner and in synergy with radiation; also recorded: enhances the effectiveness of ionizing radiation to kill tumor cells | essentially no toxicity; also recorded: little toxicity up to 200 μM | no radiation toxicity | enhancement of radiosensitivity of cisplatin-resistant cancer cells to X-ray ([1]; HTB-161, 12-hr treatment, 0-10 Gy 225 keV X-ray): significant enhancement in the radiosensitivity

From patent US9655965B2, “Radiosensitizer compounds for use in combination with radiation” (priority 2013, dated 2017)
